Measurements published in patent publication US10709707B2, “Methods of treating ocular conditions” (Oyster Point Pharma, Inc., priority 2016, dated 2020).
pIC50, pKi: −log10 of the molar value. Entries after “also recorded” stand apart in the source; their conditions may differ.

Experiments:
[1] = target: hERG channel (Homo sapiens, UniProt Q12809); assay: Cardiovascular safety, hERG channel in vitro; type: cell-based
[2] = test system: pentylenetetrazole convulsions; assay: CNS safety pharmacology, convulsant properties with subconvulsant pentylenetetrazole; type: in vivo, Rat: Sprague-Dawley
[3] = target: T1, human α3β2 (Homo sapiens, UniProt P17787+P32297); assay: Receptor binding α3β2, recombinant human receptors in HEK cells; settings: [3H]-S-nicotine, human α3β2 expressed in HEK cells
T1 construct: expressed in transfected cells
T1 sequence (P32297 32-505): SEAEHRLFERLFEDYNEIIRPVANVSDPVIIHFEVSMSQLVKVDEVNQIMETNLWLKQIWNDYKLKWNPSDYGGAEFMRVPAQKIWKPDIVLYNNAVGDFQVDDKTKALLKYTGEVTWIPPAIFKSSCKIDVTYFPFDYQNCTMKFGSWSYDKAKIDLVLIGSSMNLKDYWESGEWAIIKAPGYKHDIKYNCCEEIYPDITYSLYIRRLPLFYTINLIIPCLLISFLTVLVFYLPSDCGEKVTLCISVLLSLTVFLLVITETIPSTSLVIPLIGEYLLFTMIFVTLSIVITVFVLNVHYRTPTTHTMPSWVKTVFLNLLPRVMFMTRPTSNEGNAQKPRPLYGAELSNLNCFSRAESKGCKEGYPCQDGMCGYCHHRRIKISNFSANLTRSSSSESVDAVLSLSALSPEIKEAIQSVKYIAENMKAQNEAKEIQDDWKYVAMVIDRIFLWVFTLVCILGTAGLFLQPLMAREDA
T1 sequence (P17787 26-502): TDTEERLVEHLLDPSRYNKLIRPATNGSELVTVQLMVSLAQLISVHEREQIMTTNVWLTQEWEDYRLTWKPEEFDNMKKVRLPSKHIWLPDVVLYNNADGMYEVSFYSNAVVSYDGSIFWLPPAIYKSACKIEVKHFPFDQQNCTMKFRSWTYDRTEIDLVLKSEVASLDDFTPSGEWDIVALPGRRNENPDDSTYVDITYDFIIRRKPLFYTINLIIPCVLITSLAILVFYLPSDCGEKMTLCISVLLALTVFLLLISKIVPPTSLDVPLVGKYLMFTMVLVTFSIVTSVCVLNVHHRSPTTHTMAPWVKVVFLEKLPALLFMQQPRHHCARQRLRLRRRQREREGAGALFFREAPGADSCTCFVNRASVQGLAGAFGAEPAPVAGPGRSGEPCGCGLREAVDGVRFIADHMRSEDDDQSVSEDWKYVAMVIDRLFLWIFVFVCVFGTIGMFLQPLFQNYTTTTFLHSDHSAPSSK

[4] = test system: rat bone marrow; assay: in vivo rat bone marrow micronucleus test
Description: Compound 1 was negative for mutagenicity in both in vitro bioassays—including an Ames test, a micronucleus test in mouse lymphoma cells, and a chromosome aberration assay using cultured human peripheral blood lymphocytes—and an in vivo rat bone marrow micronucleus test.

[5] = test system: subjects (intranasal administration); assay: Panel of compounds administered intranasally: effect on tearing and discomfort response; settings: 50 microliters intranasally, three subjects, 0.01 mg/mL increased logarithmically up to 10 mg/mL
Method: A panel of twenty compounds with various receptor binding profiles, including other nicotinic acetylcholine receptor (nAchR) agonists were tested. At the onset of the experiment, 50 microliters of a 0.01 mg/mL compound formulation was administered intranasally to three subjects.

[6] = target: a6/a3b2b3 (Homo sapiens, UniProt P17787+P32297+Q15825); assay: Receptor binding a6/a3b2b3
a6/a3b2b3, sequence (Q15825+P32297 fused with the stated changes): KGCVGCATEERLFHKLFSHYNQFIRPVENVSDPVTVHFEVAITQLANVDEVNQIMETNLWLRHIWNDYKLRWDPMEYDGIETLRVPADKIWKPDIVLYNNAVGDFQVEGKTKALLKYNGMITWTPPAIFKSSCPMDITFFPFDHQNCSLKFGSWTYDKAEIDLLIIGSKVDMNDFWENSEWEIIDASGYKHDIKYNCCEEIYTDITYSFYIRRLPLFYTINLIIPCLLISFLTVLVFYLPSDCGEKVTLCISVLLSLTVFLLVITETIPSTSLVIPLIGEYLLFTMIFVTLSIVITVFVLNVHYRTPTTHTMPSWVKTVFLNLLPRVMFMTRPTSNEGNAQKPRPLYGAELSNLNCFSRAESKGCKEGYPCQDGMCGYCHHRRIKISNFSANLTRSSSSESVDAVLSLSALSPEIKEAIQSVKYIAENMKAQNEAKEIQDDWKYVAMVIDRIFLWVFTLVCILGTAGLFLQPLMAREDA
a6/a3b2b3, sequence (P17787 26-502): as the sequence (P17787 26-502) above
a6/a3b2b3, sequence (Q05901 25-458 partner limits assumed): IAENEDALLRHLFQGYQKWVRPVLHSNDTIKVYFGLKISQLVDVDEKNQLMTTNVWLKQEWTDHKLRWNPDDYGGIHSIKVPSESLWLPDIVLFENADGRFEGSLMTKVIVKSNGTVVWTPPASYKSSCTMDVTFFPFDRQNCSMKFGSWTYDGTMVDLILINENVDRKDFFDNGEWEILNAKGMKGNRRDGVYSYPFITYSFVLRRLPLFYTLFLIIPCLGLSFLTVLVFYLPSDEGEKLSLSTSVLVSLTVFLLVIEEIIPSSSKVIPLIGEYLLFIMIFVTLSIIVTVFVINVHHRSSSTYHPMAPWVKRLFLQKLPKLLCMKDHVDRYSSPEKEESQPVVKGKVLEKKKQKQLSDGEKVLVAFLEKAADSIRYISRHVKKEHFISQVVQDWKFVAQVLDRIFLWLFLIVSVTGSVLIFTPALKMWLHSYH

[7] = Single dose pharmacokinetics studies; type: in vivo; settings: Swiss (mouse), Sprague-Dawley (rat), cynomolgus (monkey), plasma, oral, rat and monkey, read-out: time to reach maximum concentration (Tmax)
Method: In a monkey study, [^14C]-Compound 1 was given at 10 mg/kg orally or 5 mg/kg by iv infusion. Oral bioavailability in this study was about 30%.

[8] = target: a4b4 (Homo sapiens, UniProt P30926+P43681); assay: Receptor binding a4b4
a4b4, sequence (P43681 29-627 limits assumed): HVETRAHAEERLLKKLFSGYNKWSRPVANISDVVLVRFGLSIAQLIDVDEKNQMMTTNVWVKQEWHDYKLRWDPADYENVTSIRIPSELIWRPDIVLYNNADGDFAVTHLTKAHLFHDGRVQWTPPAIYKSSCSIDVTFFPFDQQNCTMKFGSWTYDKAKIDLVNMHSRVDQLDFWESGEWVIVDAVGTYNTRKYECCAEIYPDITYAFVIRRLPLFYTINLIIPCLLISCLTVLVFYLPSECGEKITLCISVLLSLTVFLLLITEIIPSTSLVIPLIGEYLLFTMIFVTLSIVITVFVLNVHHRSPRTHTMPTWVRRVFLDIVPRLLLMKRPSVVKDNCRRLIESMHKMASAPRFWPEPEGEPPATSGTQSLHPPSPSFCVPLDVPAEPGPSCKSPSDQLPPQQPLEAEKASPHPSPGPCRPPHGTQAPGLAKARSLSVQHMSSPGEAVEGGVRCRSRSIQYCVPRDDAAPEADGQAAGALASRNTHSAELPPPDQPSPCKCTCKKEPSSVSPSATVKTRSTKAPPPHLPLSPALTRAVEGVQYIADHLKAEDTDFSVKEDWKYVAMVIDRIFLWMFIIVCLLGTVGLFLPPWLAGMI
a4b4, sequence (P30926 22-498): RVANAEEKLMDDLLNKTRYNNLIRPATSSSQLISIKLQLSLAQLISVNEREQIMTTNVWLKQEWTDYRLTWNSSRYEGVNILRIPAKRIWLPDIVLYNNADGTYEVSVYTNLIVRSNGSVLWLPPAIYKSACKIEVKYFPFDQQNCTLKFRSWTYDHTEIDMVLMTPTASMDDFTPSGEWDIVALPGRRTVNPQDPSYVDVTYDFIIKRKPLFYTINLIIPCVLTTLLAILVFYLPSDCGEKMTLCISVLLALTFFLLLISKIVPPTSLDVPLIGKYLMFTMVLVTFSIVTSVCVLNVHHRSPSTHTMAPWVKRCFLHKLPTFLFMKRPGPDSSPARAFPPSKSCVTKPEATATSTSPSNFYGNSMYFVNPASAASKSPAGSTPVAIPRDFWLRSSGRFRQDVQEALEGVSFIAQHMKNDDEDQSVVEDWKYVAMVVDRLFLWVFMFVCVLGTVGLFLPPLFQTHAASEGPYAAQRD

hERG channel, sequence (Q12809 whole entry): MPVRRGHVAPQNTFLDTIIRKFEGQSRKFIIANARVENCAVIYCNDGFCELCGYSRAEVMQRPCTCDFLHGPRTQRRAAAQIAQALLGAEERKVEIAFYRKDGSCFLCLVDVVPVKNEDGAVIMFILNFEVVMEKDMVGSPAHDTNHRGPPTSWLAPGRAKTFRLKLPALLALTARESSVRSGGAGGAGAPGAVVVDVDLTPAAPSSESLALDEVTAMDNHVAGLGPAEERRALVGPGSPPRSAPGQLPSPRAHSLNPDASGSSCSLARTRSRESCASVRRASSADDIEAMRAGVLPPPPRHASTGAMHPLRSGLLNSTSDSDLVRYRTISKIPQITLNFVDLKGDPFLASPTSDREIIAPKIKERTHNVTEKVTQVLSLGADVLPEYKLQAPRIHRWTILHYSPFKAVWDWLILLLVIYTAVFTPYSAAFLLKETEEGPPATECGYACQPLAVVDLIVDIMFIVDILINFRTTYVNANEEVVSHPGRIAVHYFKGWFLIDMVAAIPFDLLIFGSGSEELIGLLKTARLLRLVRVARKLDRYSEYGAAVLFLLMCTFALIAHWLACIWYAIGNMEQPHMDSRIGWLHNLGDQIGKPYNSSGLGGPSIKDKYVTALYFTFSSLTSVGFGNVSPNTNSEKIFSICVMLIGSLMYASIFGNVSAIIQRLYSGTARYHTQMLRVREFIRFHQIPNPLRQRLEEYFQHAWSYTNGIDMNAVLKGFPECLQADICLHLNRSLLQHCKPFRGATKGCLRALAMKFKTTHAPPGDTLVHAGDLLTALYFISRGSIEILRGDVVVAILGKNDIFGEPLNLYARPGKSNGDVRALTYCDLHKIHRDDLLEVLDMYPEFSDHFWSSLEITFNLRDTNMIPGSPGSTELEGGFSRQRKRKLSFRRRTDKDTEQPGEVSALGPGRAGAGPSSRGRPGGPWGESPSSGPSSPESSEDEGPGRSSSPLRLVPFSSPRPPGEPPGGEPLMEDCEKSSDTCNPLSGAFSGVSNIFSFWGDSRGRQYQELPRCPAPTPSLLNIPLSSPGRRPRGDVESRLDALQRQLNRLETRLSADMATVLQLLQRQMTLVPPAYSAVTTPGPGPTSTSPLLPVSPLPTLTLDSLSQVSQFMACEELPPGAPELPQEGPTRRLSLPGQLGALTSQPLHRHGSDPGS

SMILES: C(=C\[C@H]1CCNC1)/c1cncnc1 [Compound 1, (R)-5-((E)-2-pyrrolidin-3-ylvinyl)pyrimidine]
- pIC50 [1]: 3.55
- convulsions in combination with subconvulsant pentylenetetrazole ([2]; 10, 30, 100 mg/kg po): no noteworthy changes; also recorded: not did not induce convulsions. D-
- NOEL, convulsant properties ([2]; po with pentylenetetrazole): The NOEL was 100 mg/kg.
- pKi [3]: 7.57
- mutagenicity, bone marrow micronucleus test [4]: negative
- Causes Tearing [5]: Yes
- Discomfort Response [5]: No
- pKi [6]: 6.62
- Tmax [7]: 0.167 to 2.25 h
- pKi [8]: 6.17
